In brackets after ≈: the same amount, converted by molar mass.
System: Vaccinia virus
Assay: Minimum inhibitory concentration required to reduce vaccinia virus(VV) induced cytopathogenicity by 50%
Assay type: functional
Conditions: Orthopoxvirus vaccinia

Compound | MIC50
N#Cc1cn(C2OC(CO)CC2O)c2ncnc(N)c12 (configuration not stated) | 0.1 µg/mL (≈ 0.363 µM)
Nc1ncnc2c1ccn2C1OC(CO)CC1O (configuration not stated) | 1.5 µg/mL (≈ 5.99 µM)
Nc1ncnc2c(C3OC(CO)CC3O)n[nH]c12 (configuration not stated) | > 400 µg/mL
NC(=O)c1cn([C@@H]2O[C@H](CO)[C@@H](O)[C@@H]2O)c2ncnc(N)c12 | 0.2 µg/mL (≈ 0.647 µM)
Nc1ncnc2c1ccn2[C@@H]1O[C@H](CO)[C@H](O)[C@H]1O | 0.03 µg/mL (≈ 0.113 µM)
Nc1ncnc2c1ccn2[C@@H]1O[C@H](CO)[C@@H](O)[C@@H]1O | 40 µg/mL (≈ 150 µM)
Nc1ncnc2c([C@H]3C[C@H](O)[C@@H](CO)O3)n[nH]c12 | > 400 µg/mL
NC(=O)c1cn([C@H]2C[C@H](O)[C@@H](CO)O2)c2ncnc(N)c12 | 0.4 µg/mL (≈ 1.36 µM)
N#Cc1cn([C@H]2C[C@H](O)[C@@H](CO)O2)c2ncnc(N)c12 | 0.1 µg/mL (≈ 0.363 µM)
N#Cc1cn([C@@H]2O[C@H](CO)[C@@H](O)[C@@H]2O)c2ncnc(N)c12 | 1 µg/mL (≈ 3.43 µM)
NC(=O)c1cn(C2OC(CO)CC2O)c2ncnc(N)c12 (configuration not stated) | 2 µg/mL (≈ 6.82 µM)
Nc1ncnc2c1ccn2[C@H]1C[C@H](O)[C@@H](CO)O1 [2'-Deoxytubercidin] | 10 µg/mL (≈ 40 µM)
Nc1ncnc2c([C@@H]3O[C@H](CO)[C@@H](O)[C@H]3O)[nH]nc12 [FORMYCIN] | 7 µg/mL (≈ 26.2 µM)
NC(=O)c1ncn([C@@H]2O[C@H](CO)[C@@H](O)[C@H]2O)n1 [RIBAVIRIN] | 20 µg/mL (≈ 81.9 µM)
NC(=O)c1cn([C@@H]2O[C@H](CO)[C@@H](O)[C@H]2O)c2ncnc(N)c12 [SANGIVAMYCIN] | 0.02 µg/mL (≈ 0.0647 µM)
N#Cc1cn([C@@H]2O[C@H](CO)[C@@H](O)[C@H]2O)c2ncnc(N)c12 [TOYOCAMYCIN] | > 0.04 µg/mL
Nc1ncnc2c1ccn2[C@@H]1O[C@H](CO)[C@@H](O)[C@H]1O [TUBERCIDIN] | 0.007 µg/mL (≈ 0.0263 µM)
